As usually defined, the IC50 is the concentration that inhibits the measured activity by half. Low readings indicate inhibition by little substance, high ones a need for much substance.

The assay has as its target T1, human IDO1 (Homo sapiens, UniProt P14902).
T1 construct: expressed in transfected cells
Briefly: IDO inhibition assay in human IDO1/HEK293 cells (IDO1 HEK Human). The settings on record: HEK293 cells stably expressing human IDO1; 20 hours incubation; absorbance at 490 nm after Ehrlich reagent. The assay is classed as cell-based. An outline of the steps:
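HEK293 clones stably expressing human IDO1 (10,000 cells/well, phenol red-free RPMI, 10% FBS) were treated with compound for 20 hours at 37° C. After 0.2% TCA and 30 min at 50° C., kynurenine was read with Ehrlich reagent at 490 nm. IC50 was normalised to DMSO (0%) and 500 nM reference standard (100%).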

T1 sequence (P14902 whole entry): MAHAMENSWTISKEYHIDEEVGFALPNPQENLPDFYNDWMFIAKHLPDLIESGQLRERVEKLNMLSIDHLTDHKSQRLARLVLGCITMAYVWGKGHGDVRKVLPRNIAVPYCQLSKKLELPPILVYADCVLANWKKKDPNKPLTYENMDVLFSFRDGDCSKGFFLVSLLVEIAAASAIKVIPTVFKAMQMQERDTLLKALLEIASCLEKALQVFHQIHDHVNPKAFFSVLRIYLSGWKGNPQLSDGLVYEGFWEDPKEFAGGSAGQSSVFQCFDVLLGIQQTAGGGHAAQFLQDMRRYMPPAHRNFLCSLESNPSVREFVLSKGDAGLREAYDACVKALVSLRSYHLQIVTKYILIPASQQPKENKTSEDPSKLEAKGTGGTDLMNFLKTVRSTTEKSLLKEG

`C=C[C@H]1Oc2c(NC(=O)Nc3ccc(C)cc3)cc(-c3ccccc3-c3nnn[nH]3)cc2[C@@H]1CCC(F)(F)F` (racemic) [Example 94, (+/−)-1-((trans)-5-(2-(1H-tetrazol-5-yl)phenyl)-3-(3,3,3-trifluoropropyl)-2-vinyl-2,3-dihydrobenzofuran-7-yl)-3-(p-tolyl)urea]: 19 nM corresponded to half-maximal inhibition (IC50).
The result for `CC1(C)Oc2c(NC(=O)Nc3ccc(C(F)(F)F)nc3)cc(-c3ccccc3C(=O)O)cc2C1c1ccccc1` (racemic) [Example 128, (±)-2-(2,2-Dimethyl-3-phenyl-7-(3-(6-(trifluoromethyl)pyridin-3-yl)ureido)-2,3-dihydrobenzofuran-5-yl)benzoic acid] reads 2300 nM.
Under `Cc1ccc(NC(=O)Nc2cc(C(C)CC(=O)O)cc3c2O[C@H](C2CC2)[C@H]3c2ccccc2)cc1` (mixture of isomers) [Example 111, rac-3-((2R,3S)-2-cyclopropyl-3-phenyl-7-(3-(p-tolyl)ureido)-2,3-dihydrobenzofuran-5-yl)butanoic acid] stands 1400 nM; under `O=C(Nc1ccc(Cl)cc1F)Nc1cc(-c2ccccc2-c2nnn[nH]2)cc2c1OCCCC2C1CC1` (single isomer, unassigned) [41 (En. 1), 1-(7-(2-(1H-tetrazol-5-yl)phenyl)-5-cyclopropyl-2,3,4,5-tetrahydrobenzo[b]oxepin-9-yl)-3-(4-chloro-2-fluorophenyl)urea], 25.2 nM; under `C=CC1Oc2c(NC(=O)Nc3ccc(CC)cc3)cc(-c3ccccc3-c3nnn[nH]3)cc2C1CCC(F)(F)F` (racemic) [Example 99], 5.6 nM.
Under `O=C(Nc1nc2ccccc2s1)Nc1cc(-c2ccccc2-c2nnn[nH]2)cc2c1OCCCC2c1ccccc1` (stereo not shown) [Example 18, 1-(7-(2-(1H-tetrazol-5-yl)phenyl)-5-phenyl-2,3,4,5-tetrahydrobenzo[b]oxepin-9-yl)-3-(benzo[d]thiazol-2-yl)urea] stands 950 nM; under `Cc1ccc(NC(=O)Nc2cc(-c3ccccc3-c3nnn[nH]3)cc3c2OC(C)(C)C3)cc1` [Example 120, 1-(5-(2-(1H-Tetrazol-5-yl)phenyl)-2,2-dimethyl-2,3-dihydrobenzofuran-7-yl)-3-(p-tolyl)urea], 460 nM; under `C=C(C)C1Oc2c(NC(=O)Nc3ccc(C)cc3)cc(-c3ccccc3C(=O)O)cc2C1c1ccccc1` (racemic) [Example 96], 26 nM.
`C=C[C@H]1Oc2c(NC(=O)Nc3ccc(C)cc3)cc(-c3ccccc3-c3nnn[nH]3)cc2[C@@H]1c1ccccc1` (racemic) [Example 85, (+/−)-1-((trans)-5-(2-(1H-tetrazol-5-yl)phenyl)-3-phenyl-2-vinyl-2,3-dihydrobenzofuran-7-yl)-3-(p-tolyl)urea] gave a 50% inhibitory concentration (IC50) of 32 nM. The IC50 values of the last two compounds are within 1.5-fold of each other.
The result for `Cc1ccc(-c2nnn[nH]2)c(-c2cc(Nc3ccc(Cl)cc3)c3c(c2)C(c2ccccc2)CCCO3)c1` (single isomer, unassigned) [Example 78, N-(4-chlorophenyl)-7-(5-methyl-2-(1H-tetrazol-5-yl)phenyl)-5-phenyl-2,3,4,5-tetrahydrobenzo[b]oxepin-9-amine] reads 8.5 nM; that for `c1ccc(C2CCCOc3c(Nc4nc5ccccc5o4)cc(-c4ccccc4-c4nnn[nH]4)cc32)cc1` (single isomer, unassigned) [53 (En. 1), N-(7-(2-(1H-tetrazol-5-yl)phenyl)-5-phenyl-2,3,4,5-tetrahydrobenzo[b]oxepin-9-yl) benzo[d] oxazol-2-amine], 216 nM; that for `Cc1ccc(Nc2cc(-c3ccccc3-c3nnn[nH]3)cc3c2OCCCC3c2ccccc2)nc1` (single isomer, unassigned) [62 (En. 2), N-(7-(2-(1H-tetrazol-5-yl)phenyl)-5-phenyl-2,3,4,5-tetrahydrobenzo[b]oxepin-9-yl)-5-methylpyridin-2-amine], 44.9 nM.
On to `Cc1csc(NC(=O)Nc2cc(-c3ccccc3-c3nnn[nH]3)cc3c2OCCCC3c2ccccc2)n1` (stereo not shown) [Example 12, 1-(7-(2-(1H-tetrazol-5-yl)phenyl)-5-phenyl-2,3,4,5-tetrahydrobenzo[b]oxepin-9-yl)-3-(4-methylthiazol-2-yl)urea], for which the IC50 is 1070 nM. Against the preceding compound, the IC50 is about 24-fold higher.
`Cc1ccc(NC(=O)Nc2cc(-c3ccccc3-c3nnn[nH]3)cc3c2OCCCC3C(C)C)cc1` (racemic) [Example 24, 1-(7-(2-(1H-tetrazol-5-yl)phenyl)-5-isopropyl-2,3,4,5-tetrahydrobenzo[b]oxepin-9-yl)-3-(p-tolyl)urea] yielded an IC50 of 4.4 nM.
Under `Cc1ccc(NC(=O)Nc2cc(-c3cc(F)ccc3C(=O)O)cc3c2O[C@@H](C)[C@H]3c2ccccc2)cc1` (relative stereo) [Example 114, rel-4-fluoro-2-((2R,3R)-2-methyl-3-phenyl-7-(3-(p-tolyl)ureido)-2,3-dihydrobenzofuran-5-yl)benzoic acid] stands 1300 nM; under `Cc1ccc(Nc2cc(-c3ccccc3-c3nnn[nH]3)cc3c2OCCCC3c2ccccc2)nc1` (single isomer, unassigned) [62 (En. 1), N-(7-(2-(1H-tetrazol-5-yl)phenyl)-5-phenyl-2,3,4,5-tetrahydrobenzo[b]oxepin-9-yl)-5-methylpyridin-2-amine], 1810 nM; under `Cc1ccc(NC(=O)Nc2cc(-c3ccccc3-c3nnn[nH]3)cc3c2OCCCC3c2ccccc2)nc1` (stereo not shown) [Example 17, 1-(7-(2-(1H-tetrazol-5-yl)phenyl)-5-phenyl-2,3,4,5-tetrahydrobenzo[b]oxepin-9-yl)-3-(5-methylpyridin-2-yl)urea], 53 nM.
Under `CC1(C)Oc2c(NC(=O)Nc3ccccc3F)cc(-c3ccccc3-c3nnn[nH]3)cc2C1c1ccccc1` (racemic) [Example 125, (±)-1-(5-(2-(1H-Tetrazol-5-yl)phenyl)-2,2-dimethyl-3-phenyl-2,3-dihydrobenzofuran-7-yl)-3-(2-fluorophenyl)urea] stands 92 nM; under `Fc1ccc2nc(Nc3cc(-c4ccccc4-c4nnn[nH]4)cc4c3OCCCC4c3ccccc3)sc2c1` (single isomer, unassigned) [57 (En. 1), N-(7-(2-(1H-tetrazol-5-yl)phenyl)-5-phenyl-2,3,4,5-tetrahydrobenzo[b]oxepin-9-yl)-6-fluorobenzo[d]thiazol-2-amine], 849 nM.

Values taken from patent US12145927B2 (BRISTOL-MYERS SQUIBB COMPANY, priority 2018, dated 2024).
